The assay addresses human S1P3 receptor (Homo sapiens (Human), UniProt Q99500). The assay is described as follows: Activation or block of activation of human S1P3 receptor, Ca+2 FLIPR assay. The format is cell-based. The method, boiled down: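 T24 cells stably expressing human S1P3, grown in charcoal-treated FBS, dye-loaded and read on FLIPR for calcium after ligand addition in HBSS/20 mM HEPES (1 s readings for 75 s, then every 10 s for 2.5 min). Agonist or antagonist mode; S1P positive control in 4 mg/ml fatty-acid-free BSA. IC50 by Levenberg–Marquardt regression.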

The mark [1] stands for this setting: T24 cells stably expressing the human S1P3 receptor, FLIPR Ca+2 response, 0.61 nM to 10,000 nM, read-out: S1P3 IC50.
Where [2] appears, read: T24 cells stably expressing the human S1P3 receptor, value in brackets.

Like-named read-outs stand apart in the source and are kept apart here.

Sequence of human S1P3 receptor (Q99500 whole entry): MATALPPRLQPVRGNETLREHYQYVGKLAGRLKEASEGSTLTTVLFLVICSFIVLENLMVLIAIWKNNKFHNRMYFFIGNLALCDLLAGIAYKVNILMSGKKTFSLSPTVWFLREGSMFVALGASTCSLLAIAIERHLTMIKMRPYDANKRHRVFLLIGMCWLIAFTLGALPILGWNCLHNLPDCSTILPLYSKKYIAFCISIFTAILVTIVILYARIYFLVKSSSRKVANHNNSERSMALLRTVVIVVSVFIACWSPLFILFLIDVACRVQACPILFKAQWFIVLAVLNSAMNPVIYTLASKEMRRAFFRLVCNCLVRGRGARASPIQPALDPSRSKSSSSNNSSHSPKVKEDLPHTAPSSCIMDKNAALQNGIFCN

On to `CC(C)c1c(C(=O)NCc2ccc(F)c(F)c2)c2ccc(OC3CCOC3)cc2n1Cc1ccccn1` (stereo not drawn), for which the IC50 under setting [1] stood at 19 nM. The Kb (T24 cells stably expressing the human S1P3 receptor, second concentration in the cell, read-out: S1P3 Kb) is 21 nM. Also, under setting [2], the “S1P3 (% inh)” value was determined as 100%.
Take `CC(C)c1c(C(=O)NCc2ccc(F)c(F)c2)c2ccc(C3=NC(C)(C)CO3)cc2n1Cc1ccccc1` [Compound 71, 1-Benzyl-N-(3,4-difluorobenzyl)-6-(4,4-dimethyl-4,5-dihydrooxazol-2-yl)-2-isopropyl-1H-indole-3-carboxamide]: the IC50 under setting [1] was found to be 47 nM. Further, the “S1P3 (% inh)” value under setting [2] was 97%.
For the compound `[2H]C([2H])([2H])C([2H])(Oc1ccc2c(C(=O)NCc3ccc(F)c(F)c3)c(C(=C)C)n(Cc3ccccn3)c2c1)C([2H])([2H])[2H]` [Compound 199, N-(3,4-Difluorobenzyl)-2-isopropenyl-6-isopropoxy-1-(pyridin-2-ylmethyl)-1H-indole-3-carboxamide-d7], the half-inhibitory concentration (IC50) under setting [1] worked out at 51 nM. Also, under setting [2], the “S1P3 (% inh)” value amounted to 100%.
Regarding `CC(C)c1c(C(=O)NCc2ccc(F)c(F)c2)c2ccc(Oc3nccs3)cc2n1Cc1ccccn1` [Compound 150, N-(3,4-Difluorobenzyl)-2-isopropyl-1-(pyridin-2-ylmethyl)-6-(thiazol-2-yloxy)-1H-indole-3-carboxamide], the 50% inhibitory concentration (IC50) under setting [1] was 5 nM. Besides, the “S1P3 (% inh)” value under setting [2] was 100%.
Turning to `CCC(=O)Oc1ccc2c(C(=O)NCc3ccc(F)c(F)c3)c(C(C)C)n(Cc3ccccc3)c2c1` [Compound 24, 1-Benzyl-3-(3,4-difluorobenzylcarbamoyl)-2-isopropyl-1H-indol-6-yl Propionate], the “S1P3 (% inh)” value is 20 nM (100) %. The IC50 (read-out: S1P3 IC50) was determined as 20 nM.
For the compound `CC(C)Oc1ccc2c(C(=O)NCc3ccc(F)c(F)c3)c(C(C)O)n(Cc3ccccn3)c2c1` (stereo not drawn) [Compound 108, N-(3,4-Difluorobenzyl)-2-(1-hydroxyethyl)-6-isopropoxy-1-(pyridin-2-ylmethyl)-1H-indole-3-carboxamide], the IC50 under setting [1] was found to be 15 nM. Besides, under setting [2], the “S1P3 (% inh)” value is recorded as 98%.
Regarding `CC(C)c1c(C(=O)NCc2ccc(F)c(F)c2)c2ccc(Oc3nccs3)cc2n1Cc1cccnc1` [Compound 152, N-(3,4-Difluorobenzyl)-2-isopropyl-1-(pyridin-3-ylmethyl)-6-(thiazol-2-yloxy)-1H-indole-3-carboxamide], under setting [1], the IC50 came out at 17 nM. Further, the “S1P3 (% inh)” value under setting [2] was 97%.
Regarding `CC(C)c1c(C(=O)NCc2ccc(F)c(F)c2)c2ccc(OC3CCCC3)cc2n1Cc1ncco1` [Compound 211, 6-(Cyclopentyloxy)-N-(3,4-difluorobenzyl)-2-isopropyl-1-(oxazol-2-ylmethyl)-1H-indole-3-carboxamide], the IC50 under setting [1] worked out at 10 nM. Besides, the “S1P3 (% inh)” value under setting [2] turned out to be 100%.
`CC[C@H]1COC(c2ccc3c(C(=O)NCc4ccc(F)c(F)c4)c(C(C)C)n(Cc4ncco4)c3c2)=N1` [Compound 83, (S)—N-(3,4-Difluorobenzyl)-6-(4-ethyl-4,5-dihydrooxazol-2-yl)-2-isopropyl-1-(oxazol-2-ylmethyl)-1H-indole-3-carboxamide]: the IC50 under setting [1] is 280 nM. The “S1P3 (% inh)” value under setting [2] is recorded as 99%.
`CCCCOc1ccc2c(C(=O)NCc3ccc(F)c(F)c3)c(C(C)C)n(Cc3ccccc3)c2c1` [Compound 12, 1-Benzyl-6-butoxy-N-(3,4-difluorobenzyl)-2-isopropyl-1H-indole-3-carboxamide]: the IC50 under setting [1] came to 3 nM. The “S1P3 (% inh)” value under setting [2] is 100%.
The like results for `CC(C)c1c(C(=O)NCc2ccc(F)c(F)c2)c2ccc(OCCN(C)C)cc2n1Cc1ccccc1` [Compound 18, 1-Benzyl-N-(3,4-difluorobenzyl)-6-(2-(dimethylamino)ethoxy)-2-isopropyl-1H-indole-3-carboxamide] were, in that order, 242 nM and 94%.
As to `CC(C)c1c(C(=O)NCc2cccnc2)c2ccc(O)cc2n1Cc1ccccn1`, under setting [2], the “S1P3 (% inh)” value is listed as “ND (54) %”.
The compound `CC(C)c1c(C(=O)NCc2ccc(F)c(F)c2)c2ccc(C(=O)N3CCCC3)cc2n1Cc1ccccc1` registered a concentration for half-maximal inhibition (IC50) of 170 nM. Also, the “S1P3 (% inh)” value under setting [2] is on record as 170 nM (100) %.
Consider `CO/N=C/c1ccc2c(C(=O)NCc3ccc(F)c(F)c3)c(C(C)C)n(Cc3ccccn3)c2c1`, for which, under setting [1], the 50% inhibitory concentration (IC50) amounted to 137 nM. For the same compound, the “S1P3 (% inh)” value under setting [2] was determined as 100%.
Take `CC(C)c1c(C(=O)NCc2ccc(F)c(F)c2)c2ccc(N)cc2n1Cc1ccccc1` [Compound 125, 6-Amino-1-benzyl-N-(3,4-difluorobenzyl)-2-isopropyl-1H-indole-3-carboxamide]: the IC50 under setting [1] is 1700 nM. Moreover, the “S1P3 (% inh)” value under setting [2] was 90%.
In the case of `CC(C)c1c(C(=O)NCc2ccc(F)c(F)c2)c2ccc(C3=N[C@H](C)CO3)cc2n1Cc1ccccc1` [Compound 74, (R)-1-Benzyl-N-(3,4-difluorobenzyl)-2-isopropyl-6-(4-methyl-4,5-dihydrooxazol-2-yl)-1H-indole-3-carboxamide], under setting [1], the concentration for half-maximal inhibition (IC50) worked out at 49 nM. Further, under setting [2], the “S1P3 (% inh)” value is 99%.
Consider `CC(C)Oc1ccc2c(C(=O)NCc3ccc(F)c(F)c3)c(CN(C)C)n(Cc3ccccn3)c2c1` [Compound 98, N-(3,4-Difluorobenzyl)-2-((dimethylamino)methyl)-6-isopropoxy-1-(pyridin-2-ylmethyl)-1H-indole-3-carboxamide], for which the IC50 under setting [1] stood at 632 nM. For the same compound, the “S1P3 (% inh)” value under setting [2] is given as 100%.
`CC(C)c1c(C(=O)NCc2ccc(F)c(F)c2)c2ccc(OC(=O)N(C)C)cc2n1Cc1ccccc1` [Compound 21, 1-benzyl-3-(3,4-difluorobenzylcarbamoyl)-2-isopropyl-1H-indol-6-yl Dimethylcarbamate]: the IC50 under setting [1] was 24 nM. Further, the “S1P3 (% inh)” value under setting [2] stood at 99%.
In the case of `CCOC(=O)c1ccc2c(C(=O)NCc3cncc(F)c3)c(C(C)C)n(Cc3ccccn3)c2c1` [Compound 49, Ethyl 3-((5-Fluoropyridin-3-yl)methylcarbamoyl)-2-isopropyl-1-(pyridin-2-ylmethyl)-1H-indole-6-carboxylate], the IC50 under setting [1] amounted to 870 nM. Also, under setting [2], the “S1P3 (% inh)” value is on record as 100%.
Take `CO/N=C(\C)c1ccc2c(C(=O)NCc3ccc(F)c(F)c3)c(C(C)C)n(Cc3ccccc3)c2c1`: the IC50 came to 147 nM and the “S1P3 (% inh)” value is 147 nM (100) %.
For `CC[C@H]1COC(c2ccc3c(C(=O)NCc4ccc(F)c(F)c4)c(C(C)C)n(Cc4ccccn4)c3c2)=N1` [Compound 80, (S)—N-(3,4-Difluorobenzyl)-6-(4-ethyl-4,5-dihydrooxazol-2-yl)-2-isopropyl-1-(pyridin-2-ylmethyl)-1H-indole-3-carboxamide], the 50% inhibitory concentration (IC50) under setting [1] is 7 nM. Further, the “S1P3 (% inh)” value under setting [2] came out at 99%.
For the compound `Cc1cc(Cn2c(C(C)C)c(C(=O)NCc3ccc(F)c(F)c3)c3ccc(O)cc32)no1` [Compound 218, N-(3,4-Difluorobenzyl)-6-hydroxy-2-isopropyl-1-((5-methylisoxazol-3-yl)methyl)-1H-indole-3-carboxamide], the concentration for half-maximal inhibition (IC50) under setting [1] stood at 5400 nM. The “S1P3 (% inh)” value under setting [2] is given as 67%.
For `CC(C)c1c(C(=O)NCc2ccc(F)c(F)c2)c2ccc(NC3CCCC3)cc2n1Cc1ccccc1` [Compound 130, 1-Benzyl-6-(cyclopentylamino)-N-(3,4-difluorobenzyl)-2-isopropyl-1H-indole-3-carboxamide], under setting [1], the concentration for half-maximal inhibition (IC50) stood at 44 nM. The “S1P3 (% inh)” value under setting [2] is reported as 99%.
As to `CCOC(=O)c1ccc2c(C(=O)NCc3ccc(F)c(F)c3)c(C(C)C)n(Cc3cccnc3)c2c1` [Compound 46, Ethyl 3-(3,4-Difluorobenzylcarbamoyl)-2-isopropyl-1-(pyridin-3-ylmethyl)-1H-indole-6-carboxylate], the “S1P3 (% inh)” value is recorded as 241 nM (100) %. The IC50 (read-out: S1P3 IC50) stood at 241 nM.
As to `CC(C)c1c(C(=O)NCc2ccc(F)c(F)c2)c2ccc(OC3CCCC3)cc2n1Cc1ccccc1` [Compound 16, 1-Benzyl-6-(cyclopentoxy)-N-(3,4-difluorobenzyl)-2-isopropyl-1H-indole-3-carboxamide], the Kb is 1.2 nM and the “S1P3 (% inh)” value was 3 nM (100) 1.2 nM %. In addition, the half-inhibitory concentration (IC50) (read-out: S1P3 IC50) came to 3 nM.
For `COC[C@H]1COC(c2ccc3c(C(=O)NCc4ccc(F)c(F)c4)c(C(C)C)n(Cc4ccccc4)c3c2)=N1` [Compound 77, (S)-1-Benzyl-N-(3,4-difluorobenzyl)-2-isopropyl-6-(4-(methoxymethyl)-4,5-dihydrooxazol-2-yl)-1H-indole-3-carboxamide], the half-maximal inhibitory concentration (IC50) under setting [1] worked out at 46 nM. The “S1P3 (% inh)” value under setting [2] turned out to be 96%.
Consider `CC(C)c1c(C(=O)NCc2ccc(F)c(F)c2)c2ccc(CN(C)C)cc2n1Cc1ccccc1`, for which the IC50 under setting [1] worked out at 990 nM. The “S1P3 (% inh)” value under setting [2] is reported as 98%.
`CC(C)c1c(C(=O)NCc2ccc(F)c(F)c2)c2ccc(-c3nnco3)cc2n1Cc1ccccc1` [Compound 89, 1-Benzyl-N-(3,4-difluorobenzyl)-2-isopropyl-6-(1,3,4-oxadiazol-2-yl)-1H-indole-3-carboxamide]: the IC50 under setting [1] is 59 nM. Besides, under setting [2], the “S1P3 (% inh)” value is listed as 98%.
In the case of `CC(C)c1c(C(=O)NCc2ccc(F)c(F)c2)c2ccc(C(=O)N(C)C)cc2n1Cc1ccccc1`, the concentration for half-maximal inhibition (IC50) under setting [1] was found to be 197 nM. Further, the “S1P3 (% inh)” value under setting [2] is 100%.
The like results for `CC(=O)c1c(C(=O)NCc2ccc(F)c(F)c2)c2ccc(OC(C)C)cc2n1Cc1ccccn1` [Compound 109, 2-Acetyl-N-(3,4-difluorobenzyl)-6-isopropoxy-1-(pyridin-2-ylmethyl)-1H-indole-3-carboxamide] were, in that order, 21 nM and 99%.
`CC(C)c1c(C(=O)NCc2ccc(F)c(F)c2)c2ccc(Oc3ncc(Br)s3)cc2n1Cc1ncco1` [Compound 215, 6-(5-Bromothiazol-2-yloxy)-N-(3,4-difluorobenzyl)-2-isopropyl-1-(oxazol-2-ylmethyl)-1H-indole-3-carboxamide]: under setting [1], the IC50 is 23 nM. Besides, under setting [2], the “S1P3 (% inh)” value was 99%.

The record behind these values is patent US8524917B2, “6-substituted indole-3-carboxylic acid amide compounds having sphingosine-1-phosphate (S1P) receptor antagonist biological activity” (Allergan, Inc., priority 2007, dated 2013).
